Measurements as given in patent US20160362416A1, “ANTIVIRAL COMPOUNDS” (Gilead Sciences, Inc., priority 2012, published 2016).

What was measured:
[1] = test system: stable HCV 1b RLuc replicon cells (genotype 1b Con1 replicon); assay: HCV genotype 1b RLuc replicon reporter assay; format: cell-based; settings: Hepatitis C virus; stable genotype 1b Con1 RLuc replicon cells, 72 hours
Description: (§1) Evaluation of cell-based anti-HCV activity: Antiviral potency (EC50) was determined using a Renilla luciferase (RLuc)-based HCV replicon reporter assay. To perform the assay for genotype 1 and 2a JFH-1, stable HCV 1a RLuc replicon cells (harboring a dicistronic genotype 1a H77 replicon that encodes a RLuc reporter), stable HCV lb RLuc replicon cells (harboring a dicistronic genotype 1b Conl replicon that encodes a RLuc reporter), or stable HCV 2a JFH-1 Rluc replicon cells (harboring a dicistronic genotype 2a JFH-1 replicon that encodes a RLuc reporter; with L31 present in NS5A) were dispensed into 384-well plates for EC50 assays. To perform the assay for genotype 2a (with M31 present in NS5A) or 2b, NS5A chimeric genotype 2a JFH-1 replicons that encodes a RLuc-Neo reporter and either genotype 2a J6 strain NS5A gene or genotype 2b MD2b-1 strain NS5A gene (both with M31 present) respectively, were either transiently transfected (t) into Huh-Lunet cells or were established as stably replicating replicon cells (s) is provided. Either cells were dispensed into 384-well plates for EC50 assays. To perform the assay for genotype 3 and 4, NS5A chimeric genotype 1b Conl replicons that encodes a Pi-RLuc reporter and either genotype 3a S52 strain NS5A gene or genotype 4a ED43 strain NS5A gene respectively, were transiently transfected (t) into Huh-Lunet cells, which were subsequently dispensed into 384-well plates. Compounds were dissolved in DMSO at a concentration of 10 mM and diluted in DMSO either manually or using an automated pipeting instrument. Serially 3-fold diluted compounds were either manually mixed with cell culture media and added to the seeded cells or directly added to the cells using an automated instrument. DMSO was used as a negative (solvent; no inhibition) control, and the protease inhibitor ITMN-191 was included at a concentration >100×EC50 as a positive control. 72 hours later, cells were lysed and Renilla luciferase activity quantified as recommended by the manufacturer (Promega-Madison, Wis.). Non-linear regression was performed to calculate EC50 values.

[2] = test system: NS5A chimeric genotype 1b Con1 replicon with genotype 3a S52 strain NS5A gene; assay: HCV genotype 3a NS5A chimeric replicon assay; format: cell-based; settings: Hepatitis C virus, 72 h, read-out: 3a (nM)
Description: as §1

[3] = test system: NS5A chimeric genotype 1b Con1 replicon with genotype 4a ED43 strain NS5A gene; assay: HCV genotype 4a NS5A chimeric replicon assay; format: cell-based; settings: Hepatitis C virus, 72 h, read-out: 4a (s) (nM)
Description: as §1, with “[…],” for “were transiently transfected (t) into Huh-Lunet cells,”

[4] = test system: NS5A chimeric genotype 2a JFH-1 replicon with genotype 2a J6 strain NS5A gene (M31); assay: HCV genotype 2a J6 NS5A chimeric replicon assay, transient (t); format: cell-based; settings: Hepatitis C virus, 72 h, read-out: 2a J6 (t) (nM)
Description: as §1

[5] = test system: NS5A chimeric genotype 2a JFH-1 replicon with genotype 2b MD2b-1 strain NS5A gene (M31); assay: HCV genotype 2b NS5A chimeric replicon assay, stable (s); format: cell-based; settings: Hepatitis C virus, 72 h, read-out: 2b (s) (nM)
Description: as §1

[6] = test system: stable HCV 1a RLuc replicon cells (genotype 1a H77 replicon); assay: HCV genotype 1a RLuc replicon reporter assay; format: cell-based; settings: Hepatitis C virus; stable genotype 1a H77 RLuc replicon cells, 72 hours
Description: as §1

[7] = test system: stable HCV 2a JFH-1 Rluc replicon cells (L31 present in NS5A); assay: HCV genotype 2a JFH-1 RLuc replicon reporter assay; format: cell-based; settings: Hepatitis C virus, 72 h, read-out: 2a JFH (nM)
Description: as §1

[8] = test system: Y93H in genotype 1a NS5A replicon; assay: Resistance mutant replicon assay, genotype 1a NS5A Y93H; format: cell-based, HCV; settings: Hepatitis C virus, read-out: 1a Y93H (nM)
Description: as §1
(§2) To determine the antiviral potency (EC50) against resistance mutants, resistance mutations, including M28T, Q30R, Q30H, Q30E, L31M, Y93C, Y93H, and Y93N in genotype 1a NS5A, Y93H and L31V/Y93H in genotype 1b NS5A, and Y93H for in genotype 3a NS5A, were introduced individually into either 1a Pi-Rluc or 1b Pi-Rluc replicons by site directed mutagenesis. Replicon RNA of each resistant mutant was transiently transfected into Huh-7-derived cured-51 cells and antiviral potency was determined on these transfected cells as described above.

[9] = test system: Y93N in genotype 1a NS5A replicon; assay: Resistance mutant replicon assay, genotype 1a NS5A Y93N; format: cell-based, HCV; settings: Hepatitis C virus, read-out: 1a Y93N (nM)
Description: as §1, §2

[10] = test system: Y93H in genotype 3a NS5A replicon; assay: Resistance mutant replicon assay, genotype 3a NS5A Y93H; format: cell-based, HCV; settings: Hepatitis C virus, read-out: 3a Y93H (nM)
Description: as §1, §2

SMILES | EC50 [1] | EC50 [2] | EC50 [3] | EC50 [4] | EC50 [5] | EC50 [6] | EC50 [7] | EC50 [8] | EC50 [9] | EC50 [10]
COC(=O)N[C@H](C(=O)N1[C@@H](C)CC[C@H]1c1nc2ccc3cc4c(cc3c2[nH]1)OCc1cc(-c2cnc([C@@H]3CC[C@H](C)N3C(=O)[C@H](NC(=O)OC)[C@H]3C[C@@H](C)O[C@@H](C)C3)[nH]2)ccc1-4)C(C)C [Example AP, Methyl {(2S)-1-[(2S,5S)-2-(9-{2-[(2S,5S)-1-{(2R)-2-[(2R,6S)-2,6-dimethyltetrahydro-2H-pyran-4-yl]-2-[(methoxycarbonyl)amino]acetyl}-5-methylpyrrolidin-2-yl]-1H-imidazol-5-yl}-1,11-dihydroisochromeno[4′,3′:6,7]naphtho[1,2-d]imidazol-2-yl)-5-methylpyrrolidin-1-yl]-3-methyl-1-oxobutan-2-yl}carbamate] | 0.038 nM | 4.44 nM | 1.19 nM | 4.44 nM | 4.44 nM | 1.52 nM | 1.1 nM | – | – | –
COC(=O)N[C@H](C(=O)N1[C@@H](C)CC[C@H]1c1ncc(-c2ccc3c(c2)COc2cc4c(ccc5nc([C@@H]6CC[C@H](C)N6C(=O)[C@H](NC(=O)OC)C6C[C@@H](C)O[C@H](C)C6)[nH]c54)cc2-3)[nH]1)C(C)C (stereo partly drawn) [Example AR, Methyl {(2S)-1-[(2S,5S)-2-(5-{2-[(2S,5S)-1-{(2R)-2-[(2R,6R)-2,6-dimethyltetrahydro-2H-pyran-4-yl]-2-[(methoxycarbonyl)amino]acetyl}-5-methylpyrrolidin-2-yl]-1,11-dihydroisochromeno[4′,3′:6,7]naphtho[1,2-d]imidazol-9-yl}-1H-imidazol-2-yl)-5-methylpyrrolidin-1-yl]-3-methyl-1-oxobutan-2-yl}carbamate] | 0.09 nM | 8.3 nM | 4.19 nM | 5.14 nM | 15.8 nM | 8.98 nM | 2.11 nM | – | – | –
COC(=O)N[C@H](C(=O)N1[C@H](c2ncc(-c3ccc4c(c3)COc3cc5c(ccc6nc([C@@H]7C[C@H](C)[C@H](C)N7C(=O)[C@@H](NC(=O)OC)C7C[C@@H](C)O[C@H](C)C7)[nH]c65)cc3-4)[nH]2)C[C@H](C)[C@@H]1C)C1C[C@@H](C)O[C@H](C)C1 (stereo partly drawn) [Example AZ, Methyl {(1S)-1-[(2R,6R)-2,6-dimethyltetrahydro-2H-pyran-4-yl]-2-[(2S ,3S,5S)-5-(5-{2-[(2S,4S,5S)-1-{(2S)-2-[(2R,6R)-2,6-dimethyltetrahydro-2H-pyran-4-yl]-2-[(methoxycarbonyl)amino]acetyl}-4,5-dimethylpyrrolidin-2-yl]-1,11-dihydroisochromeno[4′,3′:6,7]naphtho[1,2-d]imidazol-9-yl}-1H-imidazol-2-yl)-2,3-dimethylpyrrolidin-1-yl]-2-oxoethyl}carbamate] | 0.031 nM | 0.025 nM | 0.013 nM | – | 0.024 nM | 0.021 nM | 0.01 nM | 0.025 nM | 0.059 nM | 4.52 nM
COC(=O)N[C@H](C(=O)N1[C@@H](c2nc3ccc4cc5c(cc4c3[nH]2)OCc2cc(-c3cnc([C@@H]4C[C@H](C)[C@H](C)N4C(=O)[C@@H](NC(=O)OC)C4C[C@@H](C)O[C@H](C)C4)[nH]3)ccc2-5)C[C@@H](C)[C@H]1C)C1C[C@@H](C)O[C@H](C)C1 (stereo partly drawn) [Example BA, Methyl {(1S)-1-[(2R,6R)-2,6-dimethyltetrahydro-2H-pyran-4-yl]-2-[(2R,3R,5R)-5-(9-{2-[(2S,4S,5S)-1-{(2S)-2-[(2R,6R)-2,6-dimethyltetrahydro-2H-pyran-4-yl]-2-[(methoxycarbonyl)amino]acetyl}-4,5-dimethylpyrrolidin-2-yl]-1H-imidazol-5-yl}-1,11-dihydroisochromeno[4′,3′:6,7]naphtho[1,2-d]imidazol-2-yl)-2,3-dimethylpyrrolidin-1-yl]-2-oxoethyl}carbamate] | 0.061 nM | 0.231 nM | 0.108 nM | – | 0.202 nM | 0.169 nM | 0.086 nM | 0.359 nM | 0.496 nM | 40.6 nM
COC(=O)N[C@H](C(=O)N1[C@@H](c2ncc(-c3ccc4c(c3)COc3cc5c(ccc6nc([C@@H]7C[C@H](C)[C@H](C)N7C(=O)[C@@H](NC(=O)OC)C7C[C@@H](C)O[C@H](C)C7)[nH]c65)cc3-4)[nH]2)C[C@@H](C)[C@H]1C)C1C[C@@H](C)O[C@H](C)C1 (stereo partly drawn) [Example BB, Methyl {(1S)-1-[(2R,6R)-2,6-dimethyltetrahydro-2H-pyran-4-yl]-2-[(2R,3R,5R)-5-(5-{2-[(2S,4S,5S)-1-{(2S)-2-[(2R,6R)-2,6-dimethyltetrahydro-2H-pyran-4-yl]-2-[(methoxycarbonyl)amino]acetyl}-4,5-dimethylpyrrolidin-2-yl]-1,11-dihydroisochromeno[4′,3′:6,7]naphtho[1,2-d]imidazol-9-yl}-1H-imidazol-2-yl)-2,3-dimethylpyrrolidin-1-yl]-2-oxoethyl}carbamate] | 0.205 nM | 10.3 nM | 2.54 nM | – | 10.6 nM | 3.85 nM | 2.96 nM | 20.2 nM | 29.6 nM | –
